Tests used:
[1] = Absorption spectrum / absorption maximum; type: physicochemical; settings: FIG. 3
LDL = assay: Step density gradient of BPD added to isolated lipoprotein fraction; type: in vitro ADME, human; settings: added to lipoprotein fraction after separation of albumin, % of total added
Procedure: (§1) (b) Determining BPD Plasma Distribution. Experiments were performed to determine the association of BPDs with plasma protein and lipoprotein fractions. When density ultracentrifugation was used for the analysis, 2 ml samples of human plasma were incubated for 18 hours at 4° C. in the presence of 100 μg of ^3 H-BPD-MA. The BPD-plasma solution was then adjusted to a density of 1.21 g/ml by the addition of solid KBr. A step gradient was prepared using stock KBr density solutions at 1.006, 1.019, and 1.063 g/ml, layered manually into the bottom of centrifuge tubes using a glass syringe and a narrow bore needle. The BPD-plasma solution was then layered into the bottom of the tube. Separation of the plasma proteins was accomplished by centrifugation in a Beckman SW 41 rotor for 24 hours at 40,000 rpm and 15° C. 0.5 ml fractions were collected, and the protein content of each fraction was monitored by measuring absorbance at 280 nm. 100 μl of each fraction was mixed with 5 ml Aquasol (NEN) and counted in a liquid scintillation counter.
(§2) To improve the HDL-albumin resolution, albumin was removed by ultracentrifugation. Plasma was mixed with ^14 C-BPD-MA and incubated for 18 hours at 4° C. The density of the mixture was then adjusted to 1.21 g/ml by the addition of solid KBr, followed by centrifugation at 40,000 rpm for 48 hours. […] The lipoprotein and lipoprotein-depleted fractions were counted for BPD-MA content. 82% of total ^14 C-BPD-MA added was recovered in the plasma lipoprotein fraction and 5% in the lipoprotein deficient fraction.
(§3) When albumin and other serum proteins were separated from the lipoprotein fraction before the addition of ^14 C-BPD-MA, a shift in binding was observed. After step density gradient separation, the majority of BPD-MA was still recovered with HDL (38% of total ^14 C-BPD-MA added); however in this case, the association with LDL and VLDL fractions appeared to be equivalent (17% with LDL and 18% with VLDL) (FIG. 5). […] Polyacrylamide gel electrophoresis of the HDL fractions from these density gradients confirmed that very little albumin was present. […]

HDL = assay: as above; type: in vitro ADME, human; settings: added to lipoprotein fraction after separation of albumin, % of total added
Procedure: as §1, §2, §3

VLDL = assay: as above; type: in vitro ADME, human; settings: added to lipoprotein fraction after separation of albumin, % of total added
Procedure: as §1, §2, §3

[2] = background; cited from earlier work
[3] = tested on: high density lipoproteins (HDLs); settings: Barel et al.; cited from earlier work

| Compound | major absorption peak [1] | associated with LDL (LDL) [%] | recovered with HDL (HDL) [%] | associated with VLDL (VLDL) [%] | additional absorbance [2] | maximum absorbance [2] | affinity for high density lipoproteins [3] |
| --- | --- | --- | --- | --- | --- | --- | --- |
| C=Cc1c(C)c2cc3nc(cc4[nH]c(cc5nc(cc1[nH]2)C(C)=C5CCC(=O)O)c(CCC(=O)O)c4C)C1(C)C3=CC=C(C(=O)OC)C1C(=O)OC (stereo not shown) [BPD-DA] | about 685 nm | 13 | 54 | 20 | – | – | – |
| CC1=C(CCC(=O)O)c2cc3[nH]c(cc4nc(cc5[nH]c(cc1n2)c(C)c5C(C)O)C(C)=C4C(C)O)c(C)c3CCC(=O)O (stereo not shown) [hematoporphyrin] | – | – | – | – | around 630 nm | around 400 nm | higher affinity for high density lipoproteins (HDLs) |

Reference: US5214036A, “Benzoporphyrin derivatives for photodynamic therapy” (University of British Columbia, priority 1990, dated 1993)
